Series [1] relates to POMC neurons. Nature of the series: Signaling, POMC expression and α-MSH in cultured POMC neurons (Western blotting, mRNA). Format: cell-based. As to conditions: Fmoc sextuple mutant 1 μM, insulin 10 nM. As to the method:
An increase in the potency of appetite-regulating brain neurons by administration of the GALR2 agonist was determined by immunohistochemistry (IHC). […] POMC neurons known to regulate appetite in the arcuate nucleus were cultured in vitro, treated with the Fmoc sextuple mutant (1 μM) and 10 nM insulin, washed with PBS, and lysed by the addition of 100 μl of lysis buffer (0.1% triton X-100, 0.2M Tris, pH 8.0) at room temperature for 20 min.
Proteins were extracted from cells and analyzed by Western blotting. […] POMC neurons were treated the GALR2 agonist and mRNA was then extracted. Increases in the number of the POMC neurons and the level of α-MSH were observed (FIGS. 11B to 11E).
On the technique in general: In western blotting, separated proteins are transferred to a membrane and probed.

A short description of series [2]: Stability in 100% fetal bovine serum, residual potency via IP3 production in GALR2-expressing cells. As to conditions: 37° C., 0-72 h, IP3 production in GALR2-expressing cells.
Experimental: The stability of the spexin-based mutant peptides was investigated. To this end, first, each modified mutant peptide at an initial concentration 10 μM was allowed to react in 100% fetal bovine serum (FBS) at 37° C. for 0, 3, 6, 12, 24, 48, and 72 h. Thereafter, the potencies of the mutant peptide toward GALR2 were determined via inositol 1,4,5-triphosphate (IP3) production in GALR2-expressing cells. For the IP3 assay, cells were seeded in 12-well plates at a density of 2.5×10^5 cells/well and then the next day, cells were treated with a mixture of 1 μg of GALR2-encoding plasmid DNA and Lipofectamine 2000 (Invitrogen). On day following treatment, cells were incubated in M199 media containing 1% FBS, 1% L-glutamine, 1% antibiotic, and myo-^3H inositol 1 μCi/well for 20 h to radioactively label inositol phosphate. After this stage was finished, cells were allowed to react in buffer A (140 mM NaCl, 20 mM Hepes, 4 mM KCl, 8 mM D-glucose, 1 mM MgCl2, 1 mM CaCl2), 1 mg/ml free fatty acid bovine serum albumin, and 10 mM LiCl at pH 7.2) for 30 min. After the mutant peptide was allowed to react in 100% FBS, cells were treated with the mutant peptide for 40 min at 37° C. Media was removed, and reactions were terminated by addition of 1 ml of 10 mM cold formic acid to each well. The plates were allowed to stand at 4° C. for 30 min. Then, the resulting extracts were transferred to 6-mL plastic tubes containing 500 μl AG1-8X anion exchange columns. The tubes were gently mixed with a vortexer, and the supernatants were removed from the labeled mixture. Two washes with 1 ml of triple-distilled water were performed followed by two additional washes with 60 mM ammonium formate/5 mM sodium tetraborate. The radioactively labeled mixture was eluted from the column with 1 ml of 1 M ammonium formate/0.1 M formic acid (1 mL), and 800 μl from the elution were taken from each tube and transferred into scintillation vials. Then, 2 ml of scintillation cocktail solution (Ultima Gold™, Perkin Elmer, Waltham Mass., USA) was added to each sample. The radioactivity of the mixture solution of the radioactively labeled mixture and the scintillation cocktail solution was measured using a TRI carb 2100TR liquid scintillation analyzer (Packard).
Series [3] addresses T1, GALR2 (Homo sapiens, UniProt O43603).
T1 construct: expressed in transfected cells
T1 sequence (O43603 1-387): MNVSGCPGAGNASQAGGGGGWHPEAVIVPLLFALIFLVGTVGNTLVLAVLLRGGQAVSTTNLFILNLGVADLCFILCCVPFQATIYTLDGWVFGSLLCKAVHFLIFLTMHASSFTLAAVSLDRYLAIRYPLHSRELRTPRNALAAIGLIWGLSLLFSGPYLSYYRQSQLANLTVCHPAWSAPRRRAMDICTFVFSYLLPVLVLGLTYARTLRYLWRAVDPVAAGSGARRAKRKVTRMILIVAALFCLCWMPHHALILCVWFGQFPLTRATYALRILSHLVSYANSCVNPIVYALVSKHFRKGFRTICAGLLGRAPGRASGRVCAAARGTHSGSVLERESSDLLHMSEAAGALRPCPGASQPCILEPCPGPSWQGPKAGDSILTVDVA
Nature of the series: SRE-luc assay in HEK293-Gqi cells expressing GALR2. It is filed as cell-based. As to conditions: GALR2 versus GALR3.
Text: The HEK293-Gqi stable cell line is a cell line in which the C-terminus of Gq is substituted with 3 amino acids of G to convert the signals of G to Gq signaling pathways. […] GALR subtypes 1 and 3 induce inhibitory G-coupled signaling, while GALR subtype 2 triggers stimulatory Gq-coupled signaling. This difference explains the use of the HEK293-Gqi stable cell line in which the C-terminus of Gq is substituted with 3 amino acids of G to convert the signals of Gi to Gq signaling pathways.
GALR subtypes 1 and 3 induce inhibitory G-coupled signaling, while GALR subtype 2 triggers stimulatory Gq-coupled signaling. This difference explains the use of the HEK293-Gqi stable cell line in which the C-terminus of Gq is substituted with 3 amino acids of G to convert the signals of G to Gq signaling pathways. The activities of the receptors were measured using an SRE-luc assay system designed to express luciferase (luc) by serum responsive element (SRE) promoters. Light caused by a reaction between expressed luciferase and luciferin as a substrate was detected using a luminometer so that receptor subtype-specific or ligand-specific cellular activities were observed. One day after HEK293-Gqi cells were seeded in 48-well plates at a density of 2×10^4 cells/well, plasmid DNA and SRE-luc plasmid DNA, which encode GALR2 and GALR3, respectively, were mixed in a ratio of 1:1 (75 ng+75 ng)/well, and treated with Effectene reagent (2 μl/well). After 3 h, media were replaced with DMEM media supplemented with 10% FBS. After 24 h, the DMEM media were replaced with FBS-free DMEM media. After 16 h, each constructed spexin-based mutant peptide was further incubated at 37° C. for 6 h. After this stage was finished, cells were washed with PBS and lysed by the addition of 100 μl of lysis buffer (0.1% triton X-100, 0.2M Tris, pH 8.0) at room temperature for 20 min. The luciferase activity was determined using a synergy 2 Multi-mode microplate reader (BioTek, Winooski, Vt., USA) with automatic injection of a luciferin solution (0.5 M MgCl2, 0.1 M ATP, 0.05 M D-luciferin, 1 M KH2PO4, pH 7.8).

Series [4] relates to neurons in the amygdala. Nature of the series: c-fos immunohistochemistry, amygdala and other brain regions. It is filed as in vivo, mice. As to conditions: 0.4, 4, and 40 μg to the ventricle, 1-2 h.
Experimental: Then, the brain was placed in a mold for brain tissue, transferred to and frozen in an isopentane solution kept cold on dry ice with an OCT composite containing 30% sucrose solution, and stored at −80° C. before use. The frozen brain tissue was sliced at 40 μm using a cryostat microtome, followed by immunohistochemistry.
Series [5] is described as follows: Elevated plus maze (EPM) test. As to conditions: 4 μg lateral ventricle, 2-3 h after administration, vs DMSO. It is filed as in vivo, mice. As to the method:
The effect of the GALR2 agonist dN1-Qu on recovery from anxiety disorder was investigated. In the same manner as in Example 3, a cannula was inserted into the lateral ventricle of mice. 2-3 h after dimethyl sulfoxide (DMSO) as a control or 4 μg of the GALR2 agonist dN1-Qu as an experimental group was administered, the elevated plus maze (EPM) test was conducted to measure anxiety/obsession. The EPM test uses a cross-shaped maze elevated above the floor with closed arms, open arms, and a center and is based on the behavior of mice that prefer to remain in the closed arms. Anxiety is judged to be lower when a larger number of mice remain in the open arms. After mice was placed on the plus maze, the time spent in the open arms (“time in open arm”), the number of mice entering the open arms (“number of open arm entry”), and the total movement (“number of center crossing”) were measured for the first 15 min. The results for the last 10 min were used for analysis.

Series [6] in a line: Open field test (OFT) in anxiety-induced mice. Format: in vivo. Particulars: vs DMSO. From the text:
The effect of the GALR2 agonist on anxiety reduction was investigated by the OFT for simultaneously measuring movement and anxiety (FIG. 13). The OFT is based on the behavior of mice that prefer to stay at the periphery rather than at the center of a quadrangular area. After mice were placed at the center of a quadrangular area, the proportion of the time spent in the center (“% time in center”), the proportion of the moving distance in the center (“% distance in center”), and the total moving distance (“total distance”) were measured for 10 min from the time when the animals moved to the periphery. The results were divided into two equal periods (5 min each) for analysis. 2-3 h after 4 μg of DMSO as a control or the GALR2 agonist dN1-Qu was administered to the lateral ventricle of animals, which had previously been evoked by repeated electric shocks to induce anxiety, anxiety and movement were measured.

For series [7], the system named is neurons in the arcuate nucleus. Nature of the series: c-fos immunohistochemistry, arcuate nucleus, after ventricular administration. It is filed as in vivo, mice. As to conditions: 0.4, 4, and 40 μg to the ventricle, 1 h.
Series [8] can be described thus: Dietary intake and body weight change after intracerebroventricular administration. Format: in vivo, mice. On the procedure: C57BL/6J black male mice (9 weeks of age) were acquired from Orientbio (www.orient.co.kr). Mice were housed in a cage at 20-24° C. and 40-70% relative humidity under a normal 12:12 light-dark cycle (lights onset at 8:00 am), with food and water available ad libitum. All experiments were designed to minimize the number of animals. Animals were anesthetized to minimize their suffering in accordance with the Guidelines for Ethical Care and Use of Experimental Animals, which were approved by the institutional animal care and use committee of Korea University. For intracerebroventricular injection, mice were anesthetized with sodium pentobarbital (50 mg/kg, i.p.), mounted on a stereotaxic apparatus, and implanted with a 26-gauge stainless steel cannula into the right side of the lateral ventricle. Two jewelry screws were implanted into the skull as anchors, and the whole assembly was affixed to the skull with dental cement. Mice were recovered at least 2 weeks before experimentation. The GALR2 agonist was administered using a Hamilton syringe at a rate of 0.5 μl/min. Dietary intakes and weight changes were determined by measuring the weights of feed and mice before agonist administration, measuring the weights of the feed over 1, 2, 4, 12, and 24 h, and comparing the weight of mice after 24 h with the initial weight.
The effects of the GALR2 agonist on feeding behaviors and changes in body weight were investigated by the following procedure. First, a cannula was inserted into the third ventricle.

Series [9] in a line: Sucrose preference test (SPT). Format: in vivo, mice. As to conditions: 2 days. On the procedure:
The effect of the GALR2 agonist dN1-Qu on addiction reduction was investigated. In the same manner as in Example 3, a cannula was inserted into the lateral ventricle of mice. After injection of dimethyl sulfoxide (DMSO) and 0.4, 4, and 40 μg of dN1-Qu, the consumptions of water and 1% sucrose solution were measured for 2 days by the sucrose preference test (SPT) for addiction evaluation. According to this test, tap water and sucrose solution were filled in respective bottles and weighed before injection of the agonist. After free access to the fluids for 2 days, the bottles were weighed to compare the total consumption of the fluids and the percentage of the consumed sucrose solution in the total fluid consumption.

Series [10] relates to neurons in the amygdala and arcuate nucleus. In words: Neuron activity after nasal inhalation of GALR2 agonist. Format: in vivo, mice. Particulars: 8 μg nasal inhalation, 1-2 h; like intracerebroventricular injection. As to the method: 1-2 h after nasal inhalation, the results were recorded. The results of nasal inhalation were compared with those of intracerebroventricular injection.

Where [11] appears, read: 3 μg into the third ventricle, 24 h, compared to spexin-administered mice and control.
Where [12] appears, read: concentrations of 0.5, 1, and 3.

Square brackets hold non-standard residues; d marks the D form. Peptide text beside a SMILES is read from it. * marks the point of attachment. Fmoc = O=C(OCC1c2ccccc2-c2ccccc21)*; PEG = not defined here

As for `CC(C)C[C@H](NC(=O)[C@H](C)NC(=O)[C@H](C)NC(=O)[C@H](CC(N)=O)NC(=O)[C@@H](C)NC(=O)[C@@H](NC(=O)[C@H](Cc1c[nH]c2ccccc12)NC(=O)[C@H](CC(N)=O)NC(=O)OCC1c2ccccc2-c2ccccc21)[C@@H](C)O)C(=O)N[C@@H](Cc1ccc(O)cc1)C(=O)N[C@@H](CC(C)C)C(=O)N[C@@H](Cc1ccccc1)C(=O)NCC(=O)N1CCC[C@H]1C(=O)N[C@H](CCC(N)=O)C(N)=O` [Fmoc-se] (Fmoc-NWT[dA]NAALYLFGP[dQ]-NH2), in series [1], the AKT phosphorylation result is “only the ERK pathway was phosphorylated” and the ERK phosphorylation result is given as “phosphorylated”. For the same compound, in series [2], the “stability in serum (100% FBS)” value was “increased stability”. In addition, the “specificity for GALR2” value in series [3] is “specificity for GALR2”.

As to `CC(C)C[C@H](NC(=O)[C@H](C)NC(=O)[C@H](C)NC(=O)[C@H](CC(N)=O)NC(=O)[C@@H]1CCCN1C(=O)[C@@H](NC(=O)[C@H](Cc1c[nH]c2ccccc12)NC(=O)[C@H](N)CC(N)=O)[C@@H](C)O)C(=O)N[C@@H](Cc1ccc(O)cc1)C(=O)N[C@@H](CC(C)C)C(=O)N[C@@H](Cc1ccccc1)C(=O)NCC(=O)N1CCC[C@H]1C(=O)N[C@@H](CCC(N)=O)C(N)=O` [dN1-Qu] (H-[dN]WTPNAALYLFGPQ-NH2), in series [4], the “c-fos expressing neurons in the amygdala” value is given as “increase in the number of c-fos expressing neurons” and the “neurons in other emotion-regulating brain regions” value was “not activated”. Also, in [2], the “stability in serum (100% FBS)” value is listed as “increased stability”. In series [5], the “number of center crossing” value is given as “no difference”, the “number of open arm entry” value is reported as “increased” and the “time in open arm” value is “increased”. In series [6] (first 5-min period), the “% distance in center” value was “increased” and the total distance result was “no difference”. Besides, the “% distance in center” value in series [6] (second 5-min period) is “increased”. The “c-fos expressing neurons in the arcuate nucleus” value in series [7] is reported as “increase in the number of c-fos expressing neurons”. Also, in series [8] (setting [11]), the “change in body weight” value is “weight loss was effectively induced” and the dietary intake result is on record as “significantly decreased”. Moreover, in series [9], the “total consumption of the fluids” value is recorded as “no difference”. For the same compound, the consumption of sucrose entry in [9] (1% sucrose solution) was “considerably reduced”. The “sucrose preference (consumed sucrose solution in total fluid consumption)” value in [9] (1% sucrose, 0.4, 4, and 40 μg lateral ventricle, control ~70%) is not above 60%. The “specificity for GALR2” value in series [3] is “specificity for GALR2”.

As for “PEG-NWTdANAALYLFGPdQ-NH2 ({PEG}-NWT[dA]NAALYLFGP[dQ]-NH2; reading uncertain) [PEG-se]”, the “activity of neurons in the amygdala and arcuate nucleus” value in [10] is given as “increase the activity of neurons”. Moreover, the “stability in serum (100% FBS)” value in [2] is given as “increased stability”. For the same compound, in series [8] (3 μg following 10 μg of M871), the “effect on dietary intake after GALR2 antagonist M871” value is “disappeared” and the “effect on weight loss after GALR2 antagonist M871” value was “disappeared”. For the same compound, in series [8] (setting [12]), the dietary intake entry was “dietary intakes and weight losses were observed”; the weight loss entry was “dietary intakes and weight losses were observed”. The “specificity for GALR2” value in series [3] is on record as “specificity for GALR2”.

As to insulin [reference compound], in series [1], the AKT phosphorylation result was “phosphorylated” and the ERK phosphorylation result is listed as “phosphorylated”.

Source of the values: US11248023B2 (NEURACLE SCIENCE CO., LTD., priority 2015, dated 2022).
